The values that follow come from US20220389058A1, “PEPTIDES AND COMPOSITIONS FOR USE IN COSMETICS AND MEDICINE” (LIPOTRUE, S.L., priority 2019, published 2022).

One test has as its system human skin explants. In words: Ex vivo fibrillin-1 immunostaining after methylglyoxal (Example 15). The note with it: cream containing 1% Ac-SEQ ID NO: 1-NH2, topical 2 mg/cm^2; methylglyoxal 500 μM; day 9. As to the method:
Briefly, human skin explants from a person were kept in survival in BEM culture medium at 37° C. in a humid, 5% CO2 atmosphere. A placebo cream and a cream containing 1% Ac-SEQ ID NO: 1-NH2, prepared according to Example 6, were applied topically on the basis of 2 μL per explant (2mg/cm^2) and spread using a small spatula on day 0 (DO), day 1, day 4, day 6 and day 8. […] To induce glycation, a solution of Methylglyoxal (MG) was incorporated in the BEM culture medium at a final concentration of 500 μM on day 4, day 6 and day 8, on the concerned batches “MG” (all samples except control untreated samples). Explants were collected at each timepoint and cut in two parts. Half was fixed in buffered formalin solution and half was frozen at −80° C.
The nuclei were counterstained with propidium iodide.

A further test deals with IL33. The test is described as follows: IL33 expression modulation by RT-qPCR in HDFa cells (Example 7). The class given is cell-based, Human. The note with it: 0.01 mg/mL, 24 hours. As to the method: A stock solution of the peptide was prepared in water at 1 mg/mL. Working solution was freshly prepared at the specified concentration from stock solution in the corresponding supplemented medium.
RNA (ribonucleic acid) extraction and RT-qPCR (reverse transcription quantitative polymerase chain reaction) were performed. Briefly, HDFa and HEKa cells were seeded in duplicate (n=2) in 6-well plates at a density of 4×10^5 cells/well and maintained at standard culture conditions (106 Medium supplemented with 1% (v/v) LSGS for HDFa cells; Medium Epilife supplemented with 1% (v/v) EDGS and 1% (v/v) penicillin/streptomycin for HEKa cells; 37° C., 95% room humidity, 5% CO2) for 24 hours. […]
Cells were finally lysed, and replicates were pooled together for RNA extraction using Qiagen RNeasy Mini kit following manufacturer's instructions. […] (Annealing and extension) (Arya, M., Shergill, I. S., Williamson, M., Gommersall, L., Arya, N., Patel, H. R. (2005) Basic principles of real-time quantitative PCR. Expert Rev. Mol. Diagn.; 5(2):209-19; and Jozefczuk, J. and Adjaye, J. (2011) Quantitative real-time PCR-based analysis of gene expression. Methods Enzymol. 500; 99-109).
The obtained data was analysed using the ΔΔCt method, which provides the target gene expression values as fold changes in the treated sample compared with an untreated basal sample. […]
Background: Quantitative PCR measures a nucleic acid by following its amplification.

Another test deals with emilin-1. The test is described as follows: Emilin-1 protein expression, immunofluorescence in HDLMVEC (Example 18). The class given is cell-based, Human. The method, then: HDLMVEC were cultured on coverslips in Microvascular Endothelial Cell Growth (MECG) Medium at a density of 16.000 cell/cm^2 and 37° C. in a humidified atmosphere with 5% CO2. When cell confluence was around 70-80%, cells were treated with 0.05 mg/mL Ac-SEQ ID NO:1-NH2 in MECG medium for 24 hours. Then, cells were washed twice with PBS, fixed with 4% formaldehyde and permeabilized with Triton 0.2%. Next, samples were blocked for 1 hour with PBS/BSA 5%, in order to avoid nonspecific antibody binding. Emilin-1 was stained with 1:50 Emilin-1 antibody in PBS/BSA 1%, during 1.5 hours at room temperature. After proper washing with PBS, actin was stained with 50 μg/mL Phalloidin during 1 hour at room temperature. Then, cells were washed with PBS and incubated with 5 μg/mL of the secondary antibody Goat anti-Rabbit IgG for 1 hour at room temperature. Finally, coverslips were mounted using Vectashield with DAPI, that stains nuclei, and samples were kept protected from light at 4° C. until microscopic images were acquired. […]
Images were analyzed using Image J software. Shortly, threshold was adjusted to select emilin-1 staining and mean fluorescent was measured. The number of cells was counted using the DAPI staining. […]
Statistical data analysis was performed using Student t-test by comparison of fluorescence from treated cells vs non-treated cells, *, p<0.05; **, p<0.01 and ***, p<0.001.

Test [1] in a line: Lipid peroxidation, TBARS assay (Example 13). Format: biochemical. The note with it: 0.01, 0.05, 0.1 and 0.5 mg/mL; 2 hours at 37° C.; vs negative control. As to the method: Briefly, Trolox (positive control), 0.01, 0.05, 0.1 and 0.5 mg/mL of peptide Ac-SEQ ID NO: 1-NH2 in presence of small unilamellar vesicles of egg yolk phosphatidylcholine (EYPC), a substrate for lipid peroxidation were incubated for 2 hours at 37° C. in the presence of thiobarbituric acid (TBA). A fluorimetric method was used to evaluate the % of lipid peroxidation compared to the negative control (sample only with small unilamellar vesicles of egg yolk phosphatidylcholine).

The test system of the next test is IL-33. In words: Production of protein IL-33 in HDFa cells stimulated with IFNγ, ELISA (Example 8). The class given is cell-based, human. As to conditions: HDFa cells exposed to IFNγ (300 U/mL), 0.005, 0.01 and 0.05 mg/mL, 24 hours, cell lysates. As to the method: Adult human dermal fibroblasts (HDFa) were seeded on 24-well plate at concentration of 1×10^5 cells/mL in their corresponding growth media and incubated for 24 hours in standard culture conditions; at that time, three different concentrations (0.005, 0.01 and 0.05 mg/mL) of the Ac-SEQ ID NO: 1-NH2 were added in presence of IL-33-induction stimulus (IFNγ, 300 U/mL). Cells without stimuli were also included as basal group. Positive control group was cells treated with 300 U/mL of IFNγ, but without being treated with a peptide of the present invention. 24 hours later, conditioned media was collected, and cells processed for protein extraction.
IL-33 levels in the cell lysates were analysed with a commercial ELISA kit (DuoSet ELISA. R&D). Absorbances were measured with an automated spectrophotometer plate-reader.
(In an ELISA, binding on a coated surface is turned into a signal by an enzyme label.)

As for “Ac-Arg-Arg-Gln-Met-Arg-Glu-NH2 (Ac-RRQMRE-NH2) [Ac-SEQ ID NO: 1-NH2]”, in the test on human skin explants, the “increase in fibrillin 1 staining when compared with the MG-exposed untreated control” value is 86%. Moreover, the “IL33 expression, fold change treated cells with regard to basal control” value with IL33 was −1.22 fold change. Further, in the test with emilin-1 (0.05 mg/mL, 24 hours, basal = 100.00), the “% Mean of emilin-1 compared to untreated cells” value is 170.88%. For the same substance, the “increase of the expression of emilin-1 when compared with untreated cells” value in the test with emilin-1 (24 h of treatment) was “more than 70%”. Also, in test [1], the “lipid peroxidation (TBARS)” value was “able to protect from lipid peroxidation”. Further, the IL-33 protein levels result with IL-33 is given as “reduces the IL-33 protein levels produced by HDFa cells exposed to IFNγ (300 U/mL) in a dose-dependent manner”.
